Literature values as cited in patent publication US9393184B2, “Oxychlorine oral rinse composition having enhanced oral-tissue compatibility for the destruction of malodorants, their putrefactive microbial sources and gum-disease pathogens and a method for the preparation thereof” (ProFresh Properties Inc., priority 2013, dated 2016).

Q: For O=C(O)O [carbonic acid], which pKa is on record?
A: Its pKa is 6.1.
